We go through one molecule from patent US7875638B2, “Synthesis of epothilones, intermediates thereto, analogues and uses thereof” (Sloan-Kettering Institute for Cancer Research, priority 2002, dated 2011).

Molecules are shown by their SMILES. Values after ≈ are worked out from the molar mass of the structure shown. Read-outs that look alike come from different tables or passages of the source.

Broadly, the half-life is how long it takes for the measured level to halve. In general, solubility refers to the dissolved amount per volume that the medium holds.

The subject of data set [1] is human mammary carcinoma MX-1 xenograft. Put plainly: MX-1 xenograft in nude mice. As to conditions: mouse, in vivo.
Data set [2] in a line: in vitro. As to conditions: mouse, mouse plasma.
Description: (§1) Stability of epothilones in mouse and in human liver S9 fraction. The stability study was carried out with a fully automated HPLC system which consisted of a Prospekt-2 (Spark Holland, Netherlands) sample preparation system and an Agilent 1100 HPLC system. Briefly, the Prospekt 2 picked up a C8 extraction cartridge and washed it with acetonitrile and water. The Agilent autosampler, set at 37° C., picked up 20 μl of the sample, loaded it onto the cartridge, washed it with water, then the Prospekt-2 diverted the mobile phase stream through the extraction cartridge onto the analytical column, Reliance Stable Bond C8 4×80 mm with guard column (MacMod, Chadds Ford, Pa.) and the eluent was monitored at 250 nm. […] Sample preparation involved the addition of equal volumes of plasma to PBS for a total volume of 300-400 μl, filtered, and the addition of 0.5-2 μl of the substrate (20 mM) to achieve about 30-50 mAU at 250 nm in the HPLC analysis. For pooled human liver microsome S9 fraction (Xeno Tech, Lenex, Kans.), 20 μl (400 μg) or S9 fraction was mixed with 280 μl of PBS then proceeded as above. The sampling period was controlled by the autosampler and peak area data were collected to compare the rate of disappearance of the parent compound.
(§2) Stability of epothilones in mouse and in human liver S9 fraction: The stability study was carried out with a fully automated HPLC system which consisted of a Prospekt-2 (Spark Holland, Netherlands) sample preparation system and an Agilent 1100 HPLC system. Briefly, the Prospekt 2 picked up a C8 extraction cartridge and washed it with acetonitrile and water. The Agilent autosampler, set at 37° C., picked up 20 μl of the sample, loaded it onto the cartridge, washed it with water, then the Prospekt-2 diverted the mobile phase stream through the extraction cartridge onto the analytical column, Reliance Stable Bond C8 4×80 mm with guard column (MacMod, Chadds Ford, Pa.) and the eluent was monitored at 250 nm. […] Sample preparation involves the addition of equal volumes of plasma to PBS for a total volume of 400 μl, filtered, and the addition of 0.5-2 μl of the substrate (20 mM) to achieve about 30-50 mAU at 250 nm in the HPLC analysis. For pooled human liver microsome S9 fraction (Xeno Tech, Lenex, Kans.), 20 μl (400 μg) or S9 fraction was mixed with 280 μl of PBS then proceeds as above. The sampling period was controlled by the autosampler and peak area data were collected to compare the rate of disappearance of the parent compound.
Data set [3] has as its system human mammary carcinoma MX-1 xenograft.
Data set [4] is described as follows: in vitro. The following applies: human, pooled human liver S9 fraction.
Description: as §1, §2
For data set [5], the system named is CCRF-CEM. As to conditions: for IC50: XTT assay following 72 h inhibition.
Description: (§3) Cytotoxicity Assays. In preparation for in vitro cytotoxicity assays, cells were cultured at an initial density 2-5×10^4 cells per milliliter. […] For both methods, the absorbance of each well was measured with a microplate reader (Power Wave XS, Bio-Tek, Winooski, Vt.).
(§4) A typical experiment involves culturing cells (e.g., CCRF-CEM) at an initial density of 2-5×10^4 cells per ml. […] For cells that were grown in suspension (such as CCRF-CEM and its sublines), cytotoxicitiy is measured by using the 2,-3-bis(2-methoxy-4-nitro-5-sulfophenyl)-5 carboxanilide)-2H terazodium hydroxide (XTT)-microculture tetrazonium method in duplicate in 96-well microtiter plates. For both methods, the absorbance of each well is measured with a microplate reader (EL-340, Bio-Tek, Burlington, Vt.). Each run entails six or seven concentrations of the tested drugs. Dose-effect relationship data are analyzed with the median-effect plot.
(§5) Cytotoxicity Assays: In preparation for in vitro cytotoxicity assays, cells were cultured at an initial density 2-5×10^4 cells per milliliter. […] For both methods, the absorbance of each well was measured with a microplate reader (Power Wave XS, Bio-Tek, Winooski, Vt.).
The nature of data set [6]: Octanol-water partition (POW) number by HPLC. It is filed as physicochemical. As to conditions: HPLC estimate, pH 7.4 buffer; read-out: Lipophilicity octanol/water partition (POW). As to the method:
Determination of partition of octanol-water (POW) number. An HPLC method is used to estimate octanol-water partition. An Agilent 1100 HPLC system is used with an eclipse XDB C18 column 4.6×250 mm with a mobile phase of 60% acetonitrile/40% 25 mM potassium phosphate buffer at pH 7.4 with a flow rate of 0.8 ml per min. and the eluent is monitored at 250 nm. The standards used are benzyl alcohol, acetophenone, benzophenone, naphthalene, diphenyl ether and dibenzyl with known POW of […] respectively. Sodium dichromate is used to evaluate time zero which is 2.5 min and the retention times for the standards are 3.9, 5.4, 10.6, 14, 18.7 and 19.8 min, respectively. The k value is calculated by the formula of k=(trt−t0)/t0. Linear regression of log k vs. log POW gives a straight line with r^2=0.966. This graph is used to evaluate the POW value of the epothilone analogs.

Data set [7] concerns CCRF-CEM. The following applies: human, CCRF-CEM leukemic cells, 72 h.
Description: as §3, §4, §5
For data set [8], the system named is human xenografts in nude mice, such as MX-1. More on the design: Relative therapuetic index at MTD: key to the marks not given beside the values.
The next data set has as its system CCRF-CEM/Taxol. It is filed as cell-based, human. As to conditions: Homo sapiens, CCRF-CEM, XTT assay following 72 h inhibition. A general note: Formazan colour is commonly taken as a measure of viable cells.

`C/C1=C/C[C@@H](/C(C)=C/c2csc(C)n2)OC(=O)C[C@H](O)C(C)(C)C(=O)[C@H](C)[C@@H](O)[C@@H](C)/C=C/C1` [Compound 28, trans-9,10-dehydro-12,13-desoxyepothilone B]: the “Therapeutic effect on MX-1 xenograft” value in data set [1] is “tumor disappearance”. Also, the half-life in “in vitro [2]” is 1.4 ± 0.1 h; in “in vitro [4]”, 4.9 ± 0.7 h. Further, in [3], the “Enhancement of drug potency in xenograft experiments with MX-1 tumors” value is given as “ca. 10 fold”. Also, the “IC50 in vitro (FIG. 94)” value in the data set on CCRF-CEM [5] was “sub-nanomolar”. In addition, the IC50 in the data set on CCRF-CEM [5] (Table 1-2) was 1.4 nM; with CCRF-CEM [5] (Table 1-3) it was 0.9 nM; in the data set with CCRF-CEM [5] (Table 1-4), 0.9 nM; with CCRF-CEM [7], 0.9 ± 0.4 nM; in the data set on CCRF-CEM/Taxol (Table 1-2, read-out: IC50 (μM), CCRF-CEM/Taxol) it was 0.0017 µM; with CCRF-CEM/Taxol (Table 1-3, read-out: IC50, C/Taxol), 0.0012 µM. For the same molecule, the IC50 with CCRF-CEM/Taxol (Table 1-4, read-out: IC50, CCRF-CEM/Taxol) turned out to be 0.0012 µM. The “Potency in direct comparison with dEpoB (1)” value in the data set with CCRF-CEM [5] (tumor cell lines of Table 1-2) is listed as “nearly three times more potency”. Besides, the chromatographic logP in [6] is 3.3. Further, the “Relative therapuetic index at MTD” value in [8] (graded at maximal tolerated dose) is recorded as “++++”. The “Antitumor effect in human solid tumor xenograft models” value in [8] (mouse, in vivo) was “strongly suppressed tumor growth”. Also, the “Dose accomplishing complete suppression of tumor in a variety of xenografts” value in data set [8] (mouse, in vivo) was 3 mg/kg. In addition, in [8] (mouse, in vivo), the “Efficacy compared with dEpoB” value is reported as “three times more efficacious”. Further, the “Maximal b.w. % drop without death” value in data set [8] (mouse, in vivo) came to 29%. Besides, in data set [8] (mouse, in vivo, iv), the “Therapeutic dose regimen for Q2D 6 hr-iv infusion” value lay in the range of 3 to 4 mg/kg. Also, the “Water solubility relative to other epothilones” value in the data set “Solubility in water” was “greatly increased water solubility”. Further, the concentration in solution in “Solubility in water” (water) (solubility) was 27 µg/mL (≈ 55.1 µM).
